# According to the NIST ThermoML archive (doi:10.1016/j.jct.2019.06.026):
# ± gives the expanded uncertainty stated by the source.
# Conditions: Liquid, Ebulliometric method (Recirculating still)
smiles,measurement,setting,value
"OCC(F)(F)C(F)F [2,2,3,3-tetrafluoro-1-propanol]",vapor or sublimation pressure,381.95 K,101.3 ± 3.6 kPa
CNC=O [N-methylformamide],vapor or sublimation pressure,471.2 K,101.3 ± 3.6 kPa
CN1CCCC1=O [N-methylpyrrolidone],vapor or sublimation pressure,476.05 K,101.3 ± 3.6 kPa
CN(C)C=O [dimethylformamide],vapor or sublimation pressure,426.05 K,101.3 ± 3.6 kPa
